Data as given in paper PMC3598492, “Cannabinoid receptor type 2 (CB2)-selective N-aryl-oxadiazolyl-propionamides: synthesis, radiolabelling, molecular modelling and biological evaluation” (Organic and Medicinal Chemistry Letters, 2012).

Key:
hCB1 = target: T1, hCB1 (Homo sapiens, UniProt P21554); experiment: Competitive [3H]CP55,940 binding on membrane homogenates of hCB1-CHO cells; details: hCB1-CHO; read-out: Ki hCB1
T1 construct: host or cells: CHO (hCB1-CHO), crude membrane homogenates
Protocol: (§1) CHO cell lines stably transfected with human CB1 (hCB1-CHO; obtained from Euroscreen, Gosselies, Belgium) or human CB2 (hCB2-CHO; obtained from Paul L. Prather, Department of Pharmacology and Toxicology, College of Medicine, University of Arkansas for Medical Sciences, USA) were cultured in Ham's F12 medium or Dulbecco's modified Eagle's medium (DMEM) with 10% fetal calf serum, 100 IU/mL penicillin, 100 μg/mL streptomycin and 250 or 400 μg/mL of the selection antibiotic Geneticin (G418), respectively. The cells were cultured in a humidified atmosphere with 5% CO2 at 37°C. Confluent cell layers of 175-cm^2 flasks were scraped; cells were harvested by centrifugation (800 rpm, 3 min), counted by trypan blue staining, suspended in 200 μL of 50 mM tris(hydroxymethyl)aminomethane (TRIS; pH 7.4) at 4°C and stored at −32°C until the binding experiment.
(§2) Competitive binding experiments were performed with crude membrane homogenates obtained from hCB1-CHO or hCB2-CHO cells as described above. […] Incubations were terminated by rapid filtration through a GF-B glass fibre filter pre-incubated for 90 min at room temperature in freshly prepared 0.5% polyvinylpyrrolidone + 0.1% Tween 20 solution using a 48-well cell harvester (Brandel, Gaithersburg, MD, USA).
Binding data were analysed using GraphPad Prism version 2.01 (GraphPad Software, Inc., San Diego, CA, USA) by non-linear regression to provide estimates of the half maximal inhibitory concentration (IC50) values and the […]. […] The corresponding inhibition constants (Ki) of test compounds were derived from the IC50 values using the Cheng-Prusoff equation [49]. All binding experiments were performed in triplicates, and data are given as mean values from independent experiments.

hCB2 = target: T2, hCB2 (Homo sapiens, UniProt P34972); experiment: Competitive [3H]CP55,940 binding on membrane homogenates of hCB2-CHO cells
T2 construct: host or cells: CHO (hCB2-CHO), crude membrane homogenates
T2 sequence (P34972 whole entry): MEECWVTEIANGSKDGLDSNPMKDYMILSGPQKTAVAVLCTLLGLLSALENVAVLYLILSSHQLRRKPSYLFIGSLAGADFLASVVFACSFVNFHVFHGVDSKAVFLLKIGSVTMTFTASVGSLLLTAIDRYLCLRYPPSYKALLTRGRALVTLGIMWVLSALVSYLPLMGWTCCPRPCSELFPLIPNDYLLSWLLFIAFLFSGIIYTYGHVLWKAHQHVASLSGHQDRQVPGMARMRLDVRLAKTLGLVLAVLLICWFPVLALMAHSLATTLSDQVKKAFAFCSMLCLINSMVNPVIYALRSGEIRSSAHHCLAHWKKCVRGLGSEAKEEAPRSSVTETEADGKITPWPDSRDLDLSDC
Protocol: as §1, §2
The corresponding inhibition constants (Ki) of test compounds were derived from the IC50 values using the Cheng-Prusoff equation [49]. All binding experiments were performed in triplicates, and data are given as mean values from independent experiments.

[1] = target: T3, CB2 receptors in mouse spleen tissue (Mus musculus, UniProt P47936); experiment: Autoradiographic displacement of [3H]CP55,940 on coronal mouse spleen sections; format: binding; details: read-out: Fractional occupancy of [3H]CP55,940 binding sites calculated by Gaddum equation
T3 construct: 12-μm-thick coronal sections obtained from the spleens of three animals; from tissue; host or cells: spleen sections of female CD-1 mice
T3 sequence (P47936 whole entry): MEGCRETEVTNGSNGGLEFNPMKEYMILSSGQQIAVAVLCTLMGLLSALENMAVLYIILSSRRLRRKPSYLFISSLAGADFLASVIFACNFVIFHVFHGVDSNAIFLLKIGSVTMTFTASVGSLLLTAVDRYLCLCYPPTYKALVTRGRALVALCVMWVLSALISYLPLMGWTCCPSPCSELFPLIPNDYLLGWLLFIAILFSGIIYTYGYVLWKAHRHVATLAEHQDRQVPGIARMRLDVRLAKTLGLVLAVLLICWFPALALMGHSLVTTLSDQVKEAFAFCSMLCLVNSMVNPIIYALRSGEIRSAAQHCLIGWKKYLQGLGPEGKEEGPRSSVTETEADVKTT
Protocol: Animal experiments were performed under procedures approved by the State of Saxony Animal Care and Use Committee and conducted in accordance with the German Law for the Protection of Animals. Female CD-1 mice (10 to 12 weeks old, 20 to 25 g), obtained from the Medizinisch-Experimentelles Zentrum der Universität Leipzig (Leipzig, Germany), were used for the experiments.
The animals were anesthetized and sacrificed, and their spleens were rapidly removed and frozen in isopentane at −35°C. The spleens were brought to −15°C in a cryostat (Microm International GmbH, Walldorf, Germany), and a series of 12-μm-thick coronal sections obtained from the spleens of three animals were collected in parallel on microscopic glass slides. The sections were dried at room temperature and stored at −35°C until they were processed for receptor binding autoradiography.
For autoradiographic experiments, the slides were brought to room temperature, dried in a stream of cold air, pre-incubated in a binding buffer (50 mM TRIS (pH 7.4) at 21°C, 5% BSA) for 15 min at room temperature and dried again in a stream of cold air. […] Samples were washed twice for 30 min at 4°C in 50 mM TRIS (pH 7.4) at 4°C, containing 1% BSA, dipped briefly in ice-cold deionized water (5 s), dried in a stream of cold air and exposed along with [^3H] standards (Amersham/GE Healthcare, Piscataway, NJ, USA) for 14 days to [^3H]-sensitive screen plates (Fuji Photo Film, Co. Ltd., Tokyo, Japan).
The image plates were analysed using a BAS-1800II system bioimaging analyser (Fuji Photo Film, Co. Ltd., Tokyo, Japan). Scan data were visualized and processed by computer-assisted microdensitometry (Aida version 2.31, Raytest Isotopenmessgeräte GmbH, Straubenhardt, Germany). Irregular regions of interest (ROIs) were drawn on selected areas of the spleen labelled as red pulp (low-density binding) and white pulp (high-density binding) according to Lynn and Herkenham and Massi et al..

T1 sequence (P21554 whole entry): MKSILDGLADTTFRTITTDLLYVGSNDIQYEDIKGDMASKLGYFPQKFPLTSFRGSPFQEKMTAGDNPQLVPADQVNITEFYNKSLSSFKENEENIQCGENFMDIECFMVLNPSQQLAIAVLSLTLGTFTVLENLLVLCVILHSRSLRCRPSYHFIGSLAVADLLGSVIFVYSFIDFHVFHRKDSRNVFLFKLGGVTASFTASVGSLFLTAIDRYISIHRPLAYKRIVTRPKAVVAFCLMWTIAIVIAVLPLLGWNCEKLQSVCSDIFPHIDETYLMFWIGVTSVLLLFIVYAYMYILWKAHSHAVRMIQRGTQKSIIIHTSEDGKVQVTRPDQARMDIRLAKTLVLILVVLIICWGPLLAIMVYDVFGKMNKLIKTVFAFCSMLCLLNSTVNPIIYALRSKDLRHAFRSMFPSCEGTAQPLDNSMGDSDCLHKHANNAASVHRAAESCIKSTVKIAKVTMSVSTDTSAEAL

With `CCn1c2ccccc2c2cc(NC(=O)CCc3nc(-c4ccc(F)cc4F)no3)ccc21` [Compound 6h, 3-(3-(2,4-Difluorophenyl)-1,2,4-oxadiazol-5-yl)-N-(9-ethyl-9H-carbazol-3-yl)propanamide] the Ki (hCB1) was > 1000 nM, the Ki (hCB2) was 39.4 nM and the “Selectivity over hCB1” value (hCB2; hCB2 versus hCB1) was “more than 1,000 fold”. The receptor occupancy at 1 µM [1] was 83%.
